From ChEMBL document CHEMBL3112450, “Synthesis and in vitro antitumor evaluation of primary amine substituted quinazoline linked benzimidazole” (Bioorg Med Chem Lett, 2014)

Key:
Type in all cases: functional
HOP-92 [1] = assay: Cytotoxicity against human HOP92 cells assessed as growth inhibition at 10 uM after 48 hrs by SRB assay; conditions: HOP-92, 48 h, read-out: GI
[2] = Cytotoxicity against human NCI-ADR-RES cells assessed as cell growth at 10^-6 M after 48 hrs by SRB assay; conditions: read-out: Activity
HOP-92 [3] = assay: Cytotoxicity against human HOP92 cells assessed as cell growth at 10^-6 M after 48 hrs by SRB assay; conditions: HOP-92, 48 h, read-out: Activity
SF-268 [4] = assay: Cytotoxicity against human SF268 cells assessed as cell growth at 10^-8 M after 48 hrs by SRB assay; conditions: SF-268, 48 h, read-out: Activity
MCF7 [5] = assay: Cytotoxicity against human MCF7 cells assessed as cell growth at 10^-4 M after 48 hrs by SRB assay; conditions: MCF7, 48 h, read-out: Activity
PC-3 = assay: Cytotoxicity against human PC3 cells after 48 hrs by SRB assay; conditions: PC-3, 48 h
NCI-H23 = assay: Cytotoxicity against human NCI-H23 cells assessed as cell growth at 10^-6 M after 48 hrs by SRB assay; conditions: NCI-H23, 48 h, read-out: Activity
786-0 [6] = assay: Cytotoxicity against human 786-0 cells assessed as cell growth at 10^-8 M after 48 hrs by SRB assay; conditions: 786-0, 48 h, read-out: Activity
ACHN = assay: Cytotoxicity against human ACHN cells assessed as cell growth at 10^-8 M after 48 hrs by SRB assay; conditions: read-out: Activity
MDA-MB-231 [7] = assay: Cytotoxicity against human MDA-MB-231 cells assessed as cell growth at 10^-6 M after 48 hrs by SRB assay; conditions: MDA-MB-231, 48 h, read-out: Activity
786-0 [8] = assay: Cytotoxicity against human 786-0 cells after 48 hrs by SRB assay; conditions: 786-0, 48 h
T47D = assay: Cytotoxicity against human T47D cells after 48 hrs by SRB assay
NCI-H522 [9] = assay: Cytotoxicity against human NCI-H522 cells assessed as cell growth at 10^-4 M after 48 hrs by SRB assay; conditions: NCI-H522, 48 h, read-out: Activity
RXF 393 = assay: Cytotoxicity against human RXF393 cells assessed as cell growth at 10^-6 M after 48 hrs by SRB assay; conditions: RXF 393, 48 h, read-out: Activity
SF-539 [10] = assay: Cytotoxicity against human SF539 cells assessed as cell growth at 10^-7 M after 48 hrs by SRB assay; conditions: SF-539, 48 h, read-out: Activity
OVCAR-3 = assay: Cytotoxicity against human OVCAR3 cells assessed as cell growth at 10^-6 M after 48 hrs by SRB assay; conditions: OVCAR-3, 48 h, read-out: Activity
HCT-15 = assay: Cytotoxicity against human HCT15 cells after 48 hrs by SRB assay; conditions: HCT-15, 48 h
HCC 2998 = assay: Cytotoxicity against human HCC2998 cells assessed as cell growth at 10^-4 M after 48 hrs by SRB assay; conditions: HCC 2998, 48 h, read-out: Activity
MDA-MB-435 = assay: Cytotoxicity against human MDA-MB-435 cells assessed as cell growth at 10^-6 M after 48 hrs by SRB assay; conditions: MDA-MB-435, 48 h, read-out: Activity
SR = assay: Cytotoxicity against human SR cells after 48 hrs by SRB assay
MDA-MB-468 = assay: Cytotoxicity against human MDA-MB-468 cells assessed as cell growth at 10^-4 M after 48 hrs by SRB assay; conditions: MDA-MB-468, 48 h, read-out: Activity
NCI-H522 [11] = assay: Cytotoxicity against human NCI-H522 cells assessed as cell growth at 10^-8 M after 48 hrs by SRB assay; conditions: NCI-H522, 48 h, read-out: Activity
OVCAR-8 = assay: Cytotoxicity against human OVCAR8 cells assessed as cell growth at 10^-7 M after 48 hrs by SRB assay; conditions: OVCAR-8, 48 h, read-out: Activity
786-0 [12] = assay: Cytotoxicity against human 786-0 cells assessed as cell growth at 10^-6 M after 48 hrs by SRB assay; conditions: 786-0, 48 h, read-out: Activity
SK-MEL-5 = assay: Cytotoxicity against human SK-MEL-5 cells assessed as cell growth at 10^-4 M after 48 hrs by SRB assay; conditions: SK-MEL-5, 48 h, read-out: Activity
UACC-62 = assay: Cytotoxicity against human UACC62 cells assessed as cell growth at 10^-8 M after 48 hrs by SRB assay; conditions: UACC-62, 48 h, read-out: Activity
HOP-62 = assay: Cytotoxicity against human HOP62 cells assessed as cell growth at 10^-6 M after 48 hrs by SRB assay; conditions: HOP-62, 48 h, read-out: Activity
RPMI-8226 = assay: Cytotoxicity against human RPMI8226 cells assessed as cell growth at 10^-6 M after 48 hrs by SRB assay; conditions: RPMI-8226, 48 h, read-out: Activity
NCI-H460 = assay: Cytotoxicity against human NCI-H460 cells assessed as cell growth at 10^-7 M after 48 hrs by SRB assay; conditions: NCI-H460, 48 h, read-out: Activity
NCI-H322M = assay: Cytotoxicity against human NCI-H322M cells assessed as cell growth at 10^-7 M after 48 hrs by SRB assay; conditions: read-out: Activity
HOP-92 [13] = assay: Cytotoxicity against human HOP92 cells assessed as cell growth at 10^-4 M after 48 hrs by SRB assay; conditions: HOP-92, 48 h, read-out: Activity
SK-MEL-2 [14] = assay: Cytotoxicity against human SK-MEL-2 cells assessed as cell growth at 10^-7 M after 48 hrs by SRB assay; conditions: SK-MEL-2, 48 h, read-out: Activity
SF-539 [15] = assay: Cytotoxicity against human SF539 cells assessed as cell growth at 10^-8 M after 48 hrs by SRB assay; conditions: SF-539, 48 h, read-out: Activity
MCF7 [16] = assay: Cytotoxicity against human MCF7 cells after 48 hrs by SRB assay; conditions: MCF7, 48 h
SK-MEL-2 [17] = assay: Cytotoxicity against human SK-MEL-2 cells assessed as cell growth at 10^-6 M after 48 hrs by SRB assay; conditions: SK-MEL-2, 48 h, read-out: Activity
SF-268 [18] = assay: Cytotoxicity against human SF268 cells assessed as cell growth at 10^-6 M after 48 hrs by SRB assay; conditions: SF-268, 48 h, read-out: Activity
[19] = Cytotoxicity against human UO31 cells assessed as cell growth at 10^-8 M after 48 hrs by SRB assay; conditions: UO-31, 48 h, read-out: Activity
MDA-MB-231 [20] = assay: Cytotoxicity against human MDA-MB-231 cells after 48 hrs by SRB assay; conditions: MDA-MB-231, 48 h
SK-OV-3 = assay: Cytotoxicity against human SKOV3 cells assessed as cell growth at 10^-6 M after 48 hrs by SRB assay; conditions: SK-OV-3, 48 h, read-out: Activity
[21] = read-out: LC50 (the source's name)

C=CCn1c(C)nc2ccc(Nc3nc(Nc4ncccn4)nc4ccccc34)cc21
inhibition of growth at 10 µM (HOP-92 [1]): 30%

C=CCn1c(C)nc2cc(Nc3nc(Nc4ccc5nc(C)n(CC=C)c5c4)c4ccccc4n3)ccc21
growth at 1 µM [2]: 85% | growth at 1 µM (HOP-92 [3]): 45% | growth at 0.01 µM (SF-268 [4]): 95% | growth at 100 µM (MCF7 [5]): 3% | GI50 (PC-3): 0.305 µM | TGI (PC-3): 1.02 µM | growth at 1 µM (NCI-H23): 100% | growth at 0.01 µM (786-0 [6]): 99% | growth at 0.01 µM (ACHN): 105% | growth at 1 µM (MDA-MB-231 [7]): -62% | GI50 (786-0 [8]): 0.188 µM | TGI (786-0 [8]): 0.362 µM | GI50 (T47D): 0.28 µM | LC50 (T47D): > 100 µM | TGI (T47D): 0.909 µM | growth at 100 µM (NCI-H522 [9]): -24% | growth at 1 µM (RXF 393): 22% | growth at 0.1 µM (SF-539 [10]): 101% | growth at 1 µM (OVCAR-3): -78% | GI50 (HCT-15): 0.352 µM | growth at 100 µM (HCC 2998): -88% | growth at 1 µM (MDA-MB-435): 32% | GI50 (SR): 0.222 µM | LC50 (SR): > 100 µM | growth at 100 µM (MDA-MB-468): -2% | growth at 0.01 µM (NCI-H522 [11]): 97% | growth at 0.1 µM (OVCAR-8): 101% | growth at 1 µM (786-0 [12]): -78% | growth at 100 µM (SK-MEL-5): -37% | growth at 0.01 µM (UACC-62): 97% | growth at 1 µM (HOP-62): -34% | growth at 1 µM (RPMI-8226): 59% | growth at 0.1 µM (NCI-H460): 103% | growth at 0.1 µM (NCI-H322M): 91% | growth at 100 µM (HOP-92 [13]): -84% | growth at 0.1 µM (SK-MEL-2 [14]): 98% | growth at 0.01 µM (SF-539 [15]): 96% | GI50 (MCF7 [16]): 0.209 µM | growth at 1 µM (SK-MEL-2 [17]): 74% | growth at 1 µM (SF-268 [18]): 52% | growth at 0.01 µM [19]: 85% | GI50 (MDA-MB-231 [20]): 0.205 µM | TGI (MDA-MB-231 [20]): 0.417 µM | growth at 1 µM (SK-OV-3): 97%

C=CCn1c(C)nc2ccc(Nc3nc(NCCO)nc4ccccc34)cc21
inhibition of growth at 10 µM (HOP-92 [1]): 30%

C=CCn1c(C)nc2ccc(Nc3nc(Nc4ccc(F)cc4)nc4ccccc34)cc21
growth at 1 µM [2]: 96% | growth at 1 µM (HOP-92 [3]): 41% | growth at 0.01 µM (SF-268 [4]): 88% | growth at 100 µM (MCF7 [5]): -37% | GI50 (PC-3): 3.14 µM | TGI (PC-3): 14.7 µM | CC50 (PC-3; [21]): 49.7 µM | growth at 1 µM (NCI-H23): 88% | growth at 0.01 µM (786-0 [6]): 93% | growth at 0.01 µM (ACHN): 98% | growth at 1 µM (MDA-MB-231 [7]): 85% | GI50 (786-0 [8]): 7.44 µM | TGI (786-0 [8]): 23.8 µM | CC50 (786-0 [8]; [21]): 65.1 µM | GI50 (T47D): 1.7 µM | LC50 (T47D): > 100 µM | TGI (T47D): 4.23 µM | growth at 100 µM (NCI-H522 [9]): -58% | growth at 1 µM (RXF 393): 64% | growth at 0.1 µM (SF-539 [10]): 98% | growth at 1 µM (OVCAR-3): 97% | GI50 (HCT-15): 2.84 µM | LC50 (HCT-15): > 100 µM | TGI (HCT-15): 10.4 µM | growth at 100 µM (HCC 2998): -80% | growth at 1 µM (MDA-MB-435): 90% | GI50 (SR): 2.26 µM | LC50 (SR): > 100 µM | TGI (SR): 5.93 µM | growth at 100 µM (MDA-MB-468): -37% | growth at 0.01 µM (NCI-H522 [11]): 89% | growth at 0.1 µM (OVCAR-8): 94% | growth at 1 µM (786-0 [12]): 96% | growth at 100 µM (SK-MEL-5): -69% | growth at 0.01 µM (UACC-62): 99% | growth at 1 µM (HOP-62): 95% | growth at 1 µM (RPMI-8226): 84% | growth at 0.1 µM (NCI-H460): 103% | growth at 0.1 µM (NCI-H322M): 96% | growth at 100 µM (HOP-92 [13]): -84% | growth at 0.1 µM (SK-MEL-2 [14]): 101% | growth at 0.01 µM (SF-539 [15]): 99% | GI50 (MCF7 [16]): 1.48 µM | TGI (MCF7 [16]): 3.44 µM | growth at 1 µM (SK-MEL-2 [17]): 96% | growth at 1 µM (SF-268 [18]): 94% | growth at 0.01 µM [19]: 87% | GI50 (MDA-MB-231 [20]): 2.37 µM | LC50 (MDA-MB-231 [20]): > 100 µM | TGI (MDA-MB-231 [20]): 8.24 µM | growth at 1 µM (SK-OV-3): 100%

C=CCn1c(C)nc2ccc(Nc3nc(Sc4ccc(N)cc4)nc4ccccc34)cc21
inhibition of growth at 10 µM (HOP-92 [1]): 30%

C=CCn1c(C)nc2cc(Nc3nc(NCCO)nc4ccccc34)ccc21
inhibition of growth at 10 µM (HOP-92 [1]): 40%
